Data: patent EP0845265A1, “MUCOSAL P[…] PHYSIOLOGICALLY ACTIVE PEPTIDE” (Asahi Kasei Kogyo Kabushiki Kaisha, priority 1995, dated 1997)
Counter-ions that a name gives are not always drawn.

Experiment: In vivo absorption of elcatonin by rats (nasal administration, serum level by RIA)
Set-up: species or system Wistar rats
Conditions: diltiazem hydrochloride per se, without absorption promotor
Protocol: In vivo absorption of elcatonin by rats :
Wistar rats, male (Japan SLC, body weight 200 - 250 g), fasting overnight, 4 rats in a group, were anesthetized by pentobarbital (Nembutal inj. Dainippon Pharm. Co., Japan).
Polyethylene tube was inserted into the trachea by incised in the corvex. Tube was inserted into postnasal space after esophageal incision. Administration was conducted by pouring drug solution 25 µl prepared in use using micropipette into the right naris. Blood sample 200 µl was collected from femoral vein time dependently before and after administration of drug. Blood sample was centrifuged (15,000 rpm/10 min./5°C) and stored at -30 °C before analysis.
Elcatonin 20 units/ml (in physiological saline) 0.25 ml was subcutaneously administered for comparison with absorption rate (comparison 1).
Blood level was assayed by RIA.
Absorption rate is calculated by using area under the curve (AUC) in the comparison 1 from the following equation. Absorption rate (%) =(AUC (I.N.))/(AUC (S.C.))×(dose (S.C.))/(dose (I.N.))×100 [formula] wherein I. N. : nasal administraion and S.C. : subcutaneous administration. As clearly shown in Fig. 2, absorption of elcatonin was enhanced in above 2 fold through nasal mucosa by administering with absorption promotor sodium glycocholate and calciuim channel blocker as compared with sodium glycocholic acid per se.

COc1ccc([C@@H]2Sc3ccccc3N(CCN(C)C)C(=O)[C@@H]2OC(C)=O)cc1 [diltiazem hydrochloride, Diltiazem hydrochloride]
absorption promoting action: no absorption promoting action
